These compounds were tested against Recombinant human cathepsin S (CatS) (Homo sapiens, UniProt P25774) (assay: Recombinant human cathepsin S (CatS) inhibition assay, fluorogenic substrate Z-Valine-Valine-Arginine-AMC). Details: not given.
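Further: Baculovirus-expressed CatS in pH 5.0 sodium acetate buffer with DTT and NaCl, fluorescence read each minute over 20 min, inhibition derived from rate slope.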

Recombinant human cathepsin S (CatS), sequence (P25774 115-331): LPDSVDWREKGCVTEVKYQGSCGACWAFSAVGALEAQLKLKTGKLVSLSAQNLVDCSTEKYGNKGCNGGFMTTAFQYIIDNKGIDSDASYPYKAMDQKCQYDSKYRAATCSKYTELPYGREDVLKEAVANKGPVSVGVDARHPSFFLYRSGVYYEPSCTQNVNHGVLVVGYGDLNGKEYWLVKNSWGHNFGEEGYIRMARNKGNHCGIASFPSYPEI

First: NC(=O)N1CCc2c(c(-c3ccc(Cl)c(C#Cc4ccc(Cl)c(CN5CCOCC5)c4)c3)nn2CCCN2CCCCC2)C1 [Example 602, 3-(4-Chloro-3-{[4-chloro-3-(morpholin-4-ylmethyl)phenyl]ethynyl}phenyl)-1-(3-piperidin-1-ylpropyl)-1,4,6,7-tetrahydro-5H-pyrazolo[4,3-c]pyridine-5-carboxamide]
Second: CS(=O)(=O)N1CCc2c(c(-c3ccc(Cl)c(C#Cc4ccc(Cl)c(C(=O)NCCN5CCOCC5)c4)c3)nn2CCCN2CCCCC2)C1 [Example 593, 2-Chloro-5-({2-chloro-5-[5-(methylsulfonyl)-1-(3-piperidin-1-ylpropyl)-4,5,6,7-tetrahydro-1H-pyrazolo[4,3-c]pyridin-3-yl]phenyl}ethynyl)-N-(2-morpholin-4-ylethyl)benzamide]
The IC50 of the first is 1.5-fold lower: 40 nM for the first, 60 nM for the second.

`C[C@H]1COCCN1CCCn1nc(-c2ccc(Cl)c(C#Cc3ccc(Cl)c(CNCCCO)c3)c2)c2c1CCN(C(=O)C(N)=O)C2` [Example 271, (S)-2-{3-(4-Chloro-3-{4-chloro-3-[(3-hydroxy-propylamino)-methyl]-phenylethynyl}-phenyl)-1-[3-(3-methyl-morpholin-4-yl)-propyl]-1,4,6,7-tetrahydro-pyrazolo[4,3-c]pyridin-5-yl}-2-oxo-acetamide] and `CC1COCCN1CCCn1nc(-c2ccc(Cl)c(C#Cc3ccc(Cl)c(CNCC(=O)O)c3)c2)c2c1CCN(C(N)=O)C2` (stereo in doubt) [Example 221, N-{[5-({5-[5-(Aminocarbonyl)-1-{3-[(3S)-3-methylmorpholin-4-yl]propyl}-4,5,6,7-tetrahydro-1H-pyrazolo[4,3-c]pyridin-3-yl]-2-chlorophenyl}ethynyl)-2-chlorophenyl]methyl}glycine] are the same in IC50: 20 nM for the first, 20 nM for the second.

First: C[C@H]1COCCN1CC(O)Cn1nc(-c2ccc(Cl)c(C#Cc3ccc(CNCc4ccc(Cl)cc4)cc3)c2)c2c1CCN(C(N)=O)C2 (stereo in doubt) [Example 258, 3-(4-Chloro-3-{4-[(4-chloro-benzylamino)-methyl]-phenylethynyl}-phenyl)-1-[(2S)-2-hydroxy-3-((3S)-3-methyl-morpholin-4-yl)-propyl]-1,4,6,7-tetrahydro-pyrazolo[4,3-c]pyridine-5-carboxylic acid amide]
Second: CC(=O)NCC(=O)N1CCc2c(c(-c3ccc(Cl)c(C#Cc4ccc(CNCc5ccc(Cl)cc5)cc4)c3)nn2CCCN2CCOCC2)C1 [Example 499, N-{2-[3-(4-Chloro-3-{[4-({[(4-chlorophenyl)methyl]amino}methyl)phenyl]ethynyl}phenyl)-1-(3-morpholin-4-ylpropyl)-1,4,6,7-tetrahydro-5H-pyrazolo[4,3-c]pyridin-5-yl]-2-oxoethyl}acetamide]
The IC50 of the first is 2-fold lower: 80 nM for the first, 160 nM for the second. The first is the more potent here.

Compared with `CS(=O)(=O)N1CCc2c(c(-c3ccc(Cl)c(C#Cc4ccc(C(=O)NCCN5CCOCC5)cc4)c3)nn2CCCN2CCCCC2)C1` [Example 608, 4-({2-Chloro-5-[5-(methylsulfonyl)-1-(3-piperidin-1-ylpropyl)-4,5,6,7-tetrahydro-1H-pyrazolo[4,3-c]pyridin-3-yl]phenyl}ethynyl)-N-(2-morpholin-4-ylethyl)benzamide], `CS(=O)(=O)N1CCc2c(c(-c3ccc(Cl)c(C#Cc4ccc5c(c4)CN(C4CC4)CC5)c3)nn2CCCN2CCOCC2)C1` [Example 396, 7-({2-Chloro-5-[5-(methylsulfonyl)-1-(3-morpholin-4-ylpropyl)-4,5,6,7-tetrahydro-1H-pyrazolo[4,3-c]pyridin-3-yl]phenyl}ethynyl)-2-cyclopropyl-1,2,3,4-tetrahydroisoquinoline] is 3.3-fold higher in IC50: 70 nM for the first, 230 nM for the second. The first is the more potent here.

Compared with `CS(=O)(=O)N1CCc2c(c(-c3ccc(Cl)c(CCCN4CCCC4)c3)nn2CCCN2CCC(N3CCCC3=O)CC2)C1` [Example 101, 1-[1-(3-{3-[4-Chloro-3-(3-pyrrolidin-1-yl-propyl)-phenyl]-5-methanesulfonyl-4,5,6,7-tetrahydro-pyrazolo[4,3-c]pyridin-1-yl}-propyl)-piperidin-4-yl]-pyrrolidin-2-one], `CS(=O)(=O)N1CCc2c(c(-c3ccc(Cl)c(CCCNS(=O)(=O)c4cccc(Cl)c4)c3)nn2CCCN2CCC(N3CCCC3=O)CC2)C1` [Example 90, 3-Chloro-N-{3-[2-chloro-5-(5-methanesulfonyl-1-{3-[4-(2-oxo-pyrrolidin-1-yl)-piperidin-1-yl]-propyl}-4,5,6,7-tetrahydro-1H-pyrazolo[4,3-c]pyridin-3-yl)-phenyl]-propyl}-benzenesulfonamide] is 4.9-fold lower in IC50: 2060 nM for the first, 420 nM for the second.

Going from `CS(=O)(=O)N1CCc2c(c(-c3ccc(Cl)c(C#Cc4ccc(CNCc5ccc(Cl)cc5)cc4)c3)nn2CCCN2CCC(C(N)=O)CC2)C1` [Example 350, 1-{3-[3-(4-Chloro-3-{[4-({[(4-chlorophenyl)methyl]amino}methyl)phenyl]ethynyl}phenyl)-5-(methylsulfonyl)-4,5,6,7-tetrahydro-1H-pyrazolo[4,3-c]pyridin-1-yl]propyl}piperidine-4-carboxamide] to `COc1ccc(CNCc2ccc(C#Cc3cc(-c4nn(CCCN5CCOCC5)c5c4CN(S(C)(=O)=O)CC5)ccc3Cl)cc2)cc1` [Example 339, 1-[4-({2-Chloro-5-[5-(methylsulfonyl)-1-(3-morpholin-4-ylpropyl)-4,5,6,7-tetrahydro-1H-pyrazolo[4,3-c]pyridin-3-yl]phenyl}ethynyl)phenyl]-N-{[4-(methyloxy)phenyl]methyl}methanamine], the IC50 rises from 40 nM to 230 nM (5.8-fold). The first is the more potent here.

Compared with `COC(=O)C1Cc2cc(C#Cc3cc(-c4nn(CCCN5CCOCC5)c5c4CN(S(C)(=O)=O)CC5)ccc3Cl)ccc2CN1C(=O)OC(C)(C)C` (centres unmarked) [Example 203, 2-(1,1-Dimethylethyl) 3-methyl 6-({2-chloro-5-[5-(methylsulfonyl)-1-(3-morpholin-4-ylpropyl)-4,5,6,7-tetrahydro-1H-pyrazolo[4,3-c]pyridin-3-yl]phenyl}ethynyl)-3,4-dihydroisoquinoline-2,3(1H)-dicarboxylate], `CS(=O)(=O)N1CCc2c(c(-c3ccc(Cl)c(C#Cc4ccccn4)c3)nn2CCCN2CCOCC2)C1` [Example 22, 3-(4-Chloro-3-pyridin-2-ylethynyl-phenyl)-5-methanesulfonyl-1-(3-morpholin-4-yl-propyl)-4,5,6,7-tetrahydro-1H-pyrazolo[4,3-c]pyridine] is 3.2-fold higher in IC50: 570 nM for the first, 1850 nM for the second.

Compared with `CN(Cc1ccccc1)Cc1ccc(C#Cc2cc(-c3nn(CCCN4CCOCC4)c4c3CN(S(C)(=O)=O)CC4)ccc2Cl)cc1` [Example 77, Benzyl-(4-{2-chloro-5-[5-methanesulfonyl-1-(3-morpholin-4-yl-propyl)-4,5,6,7-tetrahydro-1H-pyrazolo[4,3-c]pyridin-3-yl]-phenylethynyl}-benzyl)-methyl-amine], `CS(=O)(=O)N1CCc2c(c(-c3ccc(Cl)c(CCCNC(=O)c4ccccc4)c3)nn2CCCN2CCOCC2)C1` [Example 64, N-(3-{2-Chloro-5-[5-methanesulfonyl-1-(3-morpholin-4-yl-propyl)-4,5,6,7-tetrahydro-1H-pyrazolo[4,3-c]pyridin-3-yl]-phenyl}-propyl)-benzamide] is 8.4-fold higher in IC50: 640 nM for the first, 5400 nM for the second. The first is the more potent here.

Work on `NC(=O)C(=O)N1CCc2c(c(-c3ccc(Cl)c(C#Cc4ccc(Cl)c(C(=O)NCC5CNCCO5)c4)c3)nn2CCCN2CCSCC2)C1` (centres unmarked) [Example 580, 5-[(5-{5-[Amino(oxo)acetyl]-1-(3-thiomorpholin-4-ylpropyl)-4,5,6,7-tetrahydro-1H-pyrazolo[4,3-c]pyridin-3-yl}-2-chlorophenyl)ethynyl]-2-chloro-N-(morpholin-2-ylmethyl)benzamide] yielded an IC50 of 30 nM.

Same assay, conditions: CatS IC50

First: C[C@H]1COCCN1CCCn1nc(-c2ccc(Cl)c(C#Cc3ccc(CNCc4ccc(Cl)cc4)cc3)c2)c2c1CCN(C(=O)CO)C2 [Example 402, 2-[3-(4-Chloro-3-{[4-({[(4-chlorophenyl)methyl]amino}methyl)phenyl]ethynyl}phenyl)-1-{3-[(3S)-3-methylmorpholin-4-yl]propyl}-1,4,6,7-tetrahydro-5H-pyrazolo[4,3-c]pyridin-5-yl]-2-oxoethanol]
Second: C[C@H]1COC[C@H](C)N1CCCn1nc(-c2ccc(Cl)c(C#Cc3ccc(CNCc4ccc(Cl)cc4)cc3)c2)c2c1CCN(C(=O)C(N)=O)C2 [Example 157, 2-(3-{4-Chloro-3-[(4-{[(4-chlorobenzyl)amino]methyl}phenyl)ethynyl]phenyl}-1-{3-[(3S,5S)-3,5-dimethylmorpholin-4-yl]propyl}-1,4,6,7-tetrahydro-5H-pyrazolo[4,3-c]pyridin-5-yl)-2-oxoacetamide]
The IC50 of the first is 3.8-fold higher: 150 nM for the first, 40 nM for the second. The second is the more potent here.

Going from `CS(=O)(=O)N1CCc2c(c(-c3ccc(Cl)c(C#Cc4cccnc4)c3)nn2C[C@@H](O)CN2CCC(C3CCNCC3)CC2)C1` [Example 475, (2S)-1-(4,4′-Bipiperidin-1-yl)-3-{3-[4-chloro-3-(pyridin-3-ylethynyl)phenyl]-5-(methylsulfonyl)-4,5,6,7-tetrahydro-1H-pyrazolo[4,3-c]pyridin-1-yl}propan-2-ol] to `CS(=O)(=O)N1CCc2c(c(-c3ccc(Cl)c(C#Cc4ccc(CNCc5ccc(Cl)cc5)cc4)c3)nn2CCCN2CCN(c3ccccc3O)CC2)C1` [Example 407, 2-(4-{3-[3-(4-Chloro-3-{[4-({[(4-chlorophenyl)methyl]amino}methyl)phenyl]ethynyl}phenyl)-5-(methylsulfonyl)-4,5,6,7-tetrahydro-1H-pyrazolo[4,3-c]pyridin-1-yl]propyl}piperazin-1-yl)phenol], the IC50 falls from 180 nM to 20 nM (9-fold).

`C[C@@H]1COCCN1CCCn1nc(-c2ccc(Cl)c(C#Cc3ccc(Cl)c(CNCCCO)c3)c2)c2c1CCN(C(N)=O)C2` [Example 222, 3-(4-Chloro-3-{4-chloro-3-[(3-hydroxy-propylamino)-methyl]-phenylethynyl}-phenyl)-1-[3-(3-methyl-morpholin-4-yl)-propyl]-1,4,6,7-tetrahydro-pyrazolo[4,3-c]pyridine-5-carboxylic acid amide] was tested, and the IC50 was 20 nM.

Same assay, conditions: CatS IC50, Table 2; average of results obtained

Work on `CS(=O)(=O)N1CCc2c(c(-c3ccc(Cl)c(C#Cc4ccc(C=O)cc4)c3)nn2CCCN2CCOCC2)C1` [Example 37, 4-{2-Chloro-5-[5-methanesulfonyl-1-(3-morpholin-4-yl-propyl)-4,5,6,7-tetrahydro-1H-pyrazolo[4,3-c]pyridin-3-yl]-phenylethynyl}-benzaldehyde] yielded an IC50 of 120 nM.
